How the values were obtained:
[1] = target: T1, CYP3A4 (Homo sapiens, UniProt P08684); test: Inhibition of CYP3A4 (unknown origin) assessed as inhibition of conversion of beetle D-luciferin to D-luciferin at 10 uM by luminescent P450-Glo assay relative to control; format: ADME; details: probe beetle D-luciferin
[2] = target: T1, CYP3A4; test: Activation of human recombinant CYP3A4 assessed as activation of conversion of beetle D-luciferin to D-luciferin at 10 uM preincubated for 10 mins followed by substrate addition and measured after 50 mins in presence of NADPH by CYP450-Glo assay relative to control; format: ADME; details: recombinant CYP3A4, probe beetle D-luciferin, read-out: Activity
[3] = target: T2, Histamine H3 receptor (Homo sapiens, UniProt Q9Y5N1); test: Displacement of [3H]-N-alpha-methylhistamine from human recombinant full length H3R expressed in HEK293 cell membranes by Microbeta scintillation counting method
[4] = target: Cytochrome P450 3A4 (Homo sapiens, UniProt P08684); test: Activation of CYP3A4 (unknown origin) assessed as activation of conversion of beetle D-luciferin to D-luciferin at 10 uM by luminescent P450-Glo assay relative to control; format: ADME
[5] = target: T2, Histamine H3 receptor; test: Binding affinity to H3R (unknown origin)

T1 sequence (P08684 whole entry): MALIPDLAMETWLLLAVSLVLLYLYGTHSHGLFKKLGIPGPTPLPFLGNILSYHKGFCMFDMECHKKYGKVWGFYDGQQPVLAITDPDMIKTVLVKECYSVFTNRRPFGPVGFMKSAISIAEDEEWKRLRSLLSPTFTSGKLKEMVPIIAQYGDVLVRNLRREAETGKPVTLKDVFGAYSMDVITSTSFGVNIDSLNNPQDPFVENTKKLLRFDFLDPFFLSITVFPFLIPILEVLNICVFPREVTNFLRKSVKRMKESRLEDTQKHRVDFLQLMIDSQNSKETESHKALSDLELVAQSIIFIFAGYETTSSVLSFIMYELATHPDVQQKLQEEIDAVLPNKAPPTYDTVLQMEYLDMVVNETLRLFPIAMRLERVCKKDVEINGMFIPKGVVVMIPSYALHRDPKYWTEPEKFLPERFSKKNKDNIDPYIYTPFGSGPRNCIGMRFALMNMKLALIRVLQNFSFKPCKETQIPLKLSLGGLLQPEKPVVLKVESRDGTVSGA
T2 sequence (Q9Y5N1 whole entry): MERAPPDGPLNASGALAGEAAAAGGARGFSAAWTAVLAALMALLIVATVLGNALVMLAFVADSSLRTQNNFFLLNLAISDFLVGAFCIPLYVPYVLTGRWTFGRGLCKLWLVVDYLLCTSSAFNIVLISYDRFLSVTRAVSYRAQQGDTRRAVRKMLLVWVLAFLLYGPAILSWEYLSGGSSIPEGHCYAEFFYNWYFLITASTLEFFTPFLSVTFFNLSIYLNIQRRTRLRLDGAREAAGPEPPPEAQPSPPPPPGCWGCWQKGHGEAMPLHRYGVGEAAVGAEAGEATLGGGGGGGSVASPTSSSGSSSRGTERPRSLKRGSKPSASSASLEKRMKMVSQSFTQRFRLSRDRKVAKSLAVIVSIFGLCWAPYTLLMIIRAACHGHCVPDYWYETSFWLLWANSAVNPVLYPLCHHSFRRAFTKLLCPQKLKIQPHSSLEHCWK
Sequence of Cytochrome P450 3A4 (P08684 whole entry): as the sequence (P08684 whole entry) above

Structure (SMILES) | inhibition at 10 µM [1] [%] | also measured
CCC(C)(C)c1ccc(OCCCN2CCCCC2)cc1 | 8 | –
c1ccc2cc(OCCCCCCN3CCCCCC3)ccc2c1 | – | activity at 50 min, 10 µM [2]: 14%
CCC(C)(C)c1ccc(OCCCCCCCN2CCCCCC2)cc1 | 38 | –
O=C(c1ccccc1)c1cccc(OCCCCCCN2CCCCCC2)c1 | – | Ki [3]: 41 nM; Activity [4]: 713%
CC1CCCN(CCCCCCCOc2ccc(Cl)cc2)C1 (stereo not drawn) | 4 | –
CC(C)(C)c1ccc(OCCCCCCN2CCCCCC2)cc1 | 19 | Ki [5]: 829 nM
CCC(C)(C)c1ccc(OCCCCCCN2CCCCCC2)cc1 | – | Activity [4]: 18%
CC(C)(C)c1ccc(OCCCN2CCCCC2)cc1 | 61 | –
Clc1ccc(OCCCCCCN2CCCCCC2)cc1 | 23 | –

Now from value to molecule, other results behind:

inhibition at 10 µM [1] [%] | Structure (SMILES) | also measured
13 | c1ccc(-c2ccc(OCCCCCCN3CCCCCC3)cc2)cc1 | –
19 | c1ccc(-c2cccc(OCCCCCCN3CCCCCC3)c2)cc1 | –
17 | Fc1ccc(OCCCCCCN2CCCCCC2)cc1 | –
5 | CCC(C)(C)c1ccc(OCCCCN2CCCCCC2)cc1 | –
46 | c1ccc2c(OCCCCCCN3CCCCCC3)cccc2c1 | –
13 | CCC(C)(C)c1ccc(OCCCN2CCCCCC2)cc1 | –
41 | CCC(C)(C)c1ccc(OCCCCCCCCN2CCCCCC2)cc1 | –

Reference: ChEMBL document CHEMBL4619729, “In silico and in vitro studies on interaction of novel non-imidazole histamine H3R antagonists with CYP3A4” (Bioorg Med Chem Lett, 2020)
